Reference: publication PMC4713475, “In Vivo Differences between Two Optical Isomers of Radioiodinated o-iodo-trans-decalinvesamicol for Use as a Radioligand for the Vesicular Acetylcholine Transporter” (PLoS ONE, 2016)

Tests used:
VAChT [1] = molecular target: T1, VAChT (Rattus norvegicus, UniProt Q62666); experiment: VAChT in vitro competitive binding with (-)-[3H]vesamicol in rat brain preparations
T1 construct: The rats were sacrificed 60 minutes after injection and their brains collected; from tissue; host or cells: brain of live male Sprague-Dawley rats (in vivo)
T1 sequence (Q62666 1-530): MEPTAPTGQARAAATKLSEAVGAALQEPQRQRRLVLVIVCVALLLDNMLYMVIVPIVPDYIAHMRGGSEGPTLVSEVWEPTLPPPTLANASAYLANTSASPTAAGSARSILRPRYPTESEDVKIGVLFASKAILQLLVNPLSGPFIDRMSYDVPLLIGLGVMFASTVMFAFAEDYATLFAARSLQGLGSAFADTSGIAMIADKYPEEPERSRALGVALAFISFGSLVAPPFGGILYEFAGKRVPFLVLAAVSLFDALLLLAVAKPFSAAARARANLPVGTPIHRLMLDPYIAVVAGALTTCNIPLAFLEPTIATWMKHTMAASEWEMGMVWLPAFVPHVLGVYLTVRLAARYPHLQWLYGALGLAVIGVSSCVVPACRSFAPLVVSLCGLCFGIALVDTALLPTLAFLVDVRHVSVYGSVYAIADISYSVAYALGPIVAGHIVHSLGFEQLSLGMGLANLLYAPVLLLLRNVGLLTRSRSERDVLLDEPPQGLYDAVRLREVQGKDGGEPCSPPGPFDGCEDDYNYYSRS

σ-2 receptor = molecular target: T2, σ-2 receptor (Rattus norvegicus, UniProt Q5U3Y7); experiment: σ-2 receptor competitive binding with [3H]DTG in rat liver preparations
T2 construct: Rat liver preparations (about 100 μg protein) were incubated in quadruplicate; from tissue; host or cells: liver of male Sprague-Dawley rats
T2 sequence (Q5U3Y7 1-176): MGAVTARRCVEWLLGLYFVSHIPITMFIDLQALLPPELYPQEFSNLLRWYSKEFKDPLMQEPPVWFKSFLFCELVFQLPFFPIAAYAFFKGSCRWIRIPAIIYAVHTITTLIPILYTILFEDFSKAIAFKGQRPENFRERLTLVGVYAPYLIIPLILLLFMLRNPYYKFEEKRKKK
Protocol: Rat brain and liver tissue preparations were prepared from dissected brains (not including the cerebellum) and livers from male Sprague-Dawley rats (250–300 g), as previously described[34].
The incubated samples were treated in the same manner as described for the σ-1 receptor binding assay.
Ki values were calculated using Graphpad Prism (GraphPad Software, Inc. San Diego, USA).

VAChT [2] = molecular target: T1, VAChT; experiment: Ex vivo autoradiography of rat brain; format: in vivo; settings: 60 min post-injection, tracer alone
Protocol: Four SD rats were injected intravenously with either (-)-[^125I]OIDV or (+)-[^125I]OIDV (0.4 mL, 1.85 MBq) either alone as a control or with 0.25 μmol (+/–)-vesamicol via the tail vein. At 60 min post-injection, the rats were sacrificed by exsanguination, and perfused via the left ventricle with saline solution (50 mL) followed by 4% paraformaldehyde (pH 7.4, 0.1 M phosphate buffer, 100 mL). Whole brains were removed, frozen in embedding medium at -78°C and cut into 20 μm sections at -25°C using a cryostat microtome. The sections were apposed to an imaging plate (Fujifilm, BAS-IP SR 2025) for eight days. The imaging plates were scanned by a BAS-5000 phosphor image reader (Fujifilm). Ex vivo autoradiograhy of (-)-[^123I]OIDV(0.4 mL, 111 MBq) was performed by the same method of two [^125I]OIDV isomers.

[3] = In vivo biodistribution study in rats; parameters: species or system rat; settings: i.v., n = 4, mean ± SD
Protocol: Three groups of male Sprague-Dawley (SD) rats (n = 4 in each group), weighing 250–300 g, were anesthetized with ether and given an intravenous (i.v.) injection of (-)-[^125I]OIDV or (+)-[^125I]OIDV (0.4 mL, 185 kBq). At 2, 30, and 60 min post-injection, the animals were sacrificed by decapitation under ether anesthesia. The organs of interest were dissected, weighed, and the radioactivity levels were measured in a gamma scintillation counter (AccuFLEX γ7010, Aloka, Tokyo). The degree of accumulation of radiotracer was expressed as a percentage of the injected dose per gram of tissue (% ID/g).
(§1) The results of biodistribution study were statistically analyzed using one-way ANOVA (non-parametric) followed by a Mann Whitney test. Statistical comparisons for the in vivo blocking experiments were performed using one-way ANOVA (non-parametric), Kruskal-Wallis test, and Dunn’s Multiple Comparison test.

VAChT [4] = molecular target: T1, VAChT; experiment: In vivo blocking study of regional brain uptake; settings: rats, 60 min
Protocol: The rats were sacrificed 60 minutes after injection and their brains collected. The cortex, striatum, cerebellum, and the remainder of the brain were dissected and separated, and their weights and radioactivity measured.
as §1

OC1CCCCC1N1CCC(c2ccccc2)CC1 (racemic) [(+/-)-vesamicol, 2-(4-phenylpiperidino) cyclohexanol, reference compound]
Ki (VAChT [1]): 0.0233 ± 0.0033 µM | Ki (σ-2 receptor): 0.07 ± 0.0166 µM

OC1CC2CCCCC2CC1N1CCC(c2ccccc2[125I])CC1 (single isomer, unassigned; (+)) [(+)-[^125I]OIDV]
regional brain distribution by ex vivo autoradiography (VAChT [2]): uniformly low throughout the entire rat brain | Biodistribution, Blood ([3]; 2 min post-injection): 0.22 ± 0.03 % ID/g | Biodistribution, Cerebellum ([3]; 2 min post-injection): 0.54 ± 0.15 % ID/g | Biodistribution, Cortex ([3]; 2 min post-injection): 0.56 ± 0.16 % ID/g | Biodistribution, Heart ([3]; 2 min post-injection): 2.79 ± 0.97 % ID/g | Biodistribution, Kidney ([3]; 2 min post-injection): 3.46 ± 0.76 % ID/g | Biodistribution, Liver ([3]; 2 min post-injection): 2.20 ± 0.22 % ID/g | Biodistribution, Lung ([3]; 2 min post-injection): 9.82 ± 1.78 % ID/g | Biodistribution, Pancreas ([3]; 2 min post-injection): 2.54 ± 0.57 % ID/g | Biodistribution, Rest brain ([3]; 2 min post-injection): 0.50 ± 0.13 % ID/g | Biodistribution, Small intestine ([3]; 2 min post-injection): 1.15 ± 1.31 % ID/g | Biodistribution, Spleen ([3]; 2 min post-injection): 1.51 ± 0.37 % ID/g | Biodistribution, Stomach ([3]; 2 min post-injection): 0.17 ± 0.07 % ID/g | Biodistribution, Striatum ([3]; 2 min post-injection): 0.49 ± 0.15 % ID/g | Biodistribution, Blood ([3]; 30 min post-injection): 0.06 ± 0.00 % ID/g | Biodistribution, Cerebellum ([3]; 30 min post-injection): 0.46 ± 0.08 % ID/g | Biodistribution, Cortex ([3]; 30 min post-injection): 0.46 ± 0.07 % ID/g | Biodistribution, Heart ([3]; 30 min post-injection): 0.45 ± 0.04 % ID/g | Biodistribution, Kidney ([3]; 30 min post-injection): 2.25 ± 0.07 % ID/g | Biodistribution, Liver ([3]; 30 min post-injection): 2.74 ± 0.20 % ID/g | Biodistribution, Lung ([3]; 30 min post-injection): 2.59 ± 0.38 % ID/g | Biodistribution, Pancreas ([3]; 30 min post-injection): 3.51 ± 0.30 % ID/g | Biodistribution, Rest brain ([3]; 30 min post-injection): 0.44 ± 0.06 % ID/g | Biodistribution, Small intestine ([3]; 30 min post-injection): 1.68 ± 0.13 % ID/g | Biodistribution, Spleen ([3]; 30 min post-injection): 2.33 ± 0.25 % ID/g | Biodistribution, Stomach ([3]; 30 min post-injection): 0.78 ± 0.73 % ID/g | Biodistribution, Striatum ([3]; 30 min post-injection): 0.45 ± 0.07 % ID/g | Biodistribution, Blood ([3]; 60 min post-injection): 0.05 ± 0.00 % ID/g | Biodistribution, Cerebellum ([3]; 60 min post-injection): 0.36 ± 0.05 % ID/g | Biodistribution, Cortex ([3]; 60 min post-injection): 0.31 ± 0.02^! % ID/g | Biodistribution, Heart ([3]; 60 min post-injection): 0.27 ± 0.01 % ID/g | Biodistribution, Kidney ([3]; 60 min post-injection): 1.47 ± 0.06 % ID/g | Biodistribution, Liver ([3]; 60 min post-injection): 1.94 ± 0.22 % ID/g | Biodistribution, Lung ([3]; 60 min post-injection): 1.32 ± 0.08 % ID/g | Biodistribution, Pancreas ([3]; 60 min post-injection): 2.81 ± 0.49 % ID/g | Biodistribution, Rest brain ([3]; 60 min post-injection): 0.32 ± 0.02^+ % ID/g | Biodistribution, Small intestine ([3]; 60 min post-injection): 1.60 ± 0.29 % ID/g | Biodistribution, Spleen ([3]; 60 min post-injection): 1.99 ± 0.18 % ID/g | Biodistribution, Stomach ([3]; 60 min post-injection): 0.29 ± 0.33 % ID/g | Biodistribution, Striatum ([3]; 60 min post-injection): 0.31 ± 0.02^$ % ID/g | regional brain uptake with co-injection of (+)-3-PPP (VAChT [4]; 0.25 μmol (+)-3-PPP co-injected i.v., all four brain regions): 81–88 % of control | regional brain uptake with co-injection of (+)-pentazocine (VAChT [4]; 0.25 μmol (+)-pentazocine co-injected i.v., all four brain regions): No decrease in uptake | regional brain uptake with co-injection of vesamicol (VAChT [4]; 0.25 μmol (+/-)-vesamicol co-injected i.v., all four brain regions): approximately 50 % of control | decrease in brain uptake by vesamicol (VAChT [4]; 0.250 μmol vesamicol co-injected): 50–55%
